Where two headings read alike, the source gives them in different places.
Key:
[1] = molecular target: T1, JMHER2 (peptide derived from the cytosolic juxtamembrane sequence of HER2) (Homo sapiens, UniProt P04626); test: Surface plasmon resonance binding to immobilized HER2 juxtamembrane peptide; conditions: analyte 5 or 10 μM, 60 s injection
T1 construct: purchased Proteogenix
Experimental: Interaction was performed on a BIAcore T200 instrument BIAcore (Cytiva Life Sciences, Marlborough, MA, USA); GE Healthcare (Little Chalfont, UK). […] Ebselen or ebselen oxide was used as an analyte and injected at 5 or 10 μM at a flow rate of 25 μL·min^−1 for 60 s.

HER2 (pY1248) in SKBR3 = molecular target: T2, HER2 (pY1248) in SKBR3 (Homo sapiens, UniProt P04626); test: HER2 activation (pY1248-HER2) in SKBR3 cells, western/dot blot; type: cell-based; set-up: Inhibition of HER2 activation / HER2 inhibition, %: concentration or dose not given beside the values
T2 construct: host or cells: SKBR3
T2 sequence (P04626 23-1255): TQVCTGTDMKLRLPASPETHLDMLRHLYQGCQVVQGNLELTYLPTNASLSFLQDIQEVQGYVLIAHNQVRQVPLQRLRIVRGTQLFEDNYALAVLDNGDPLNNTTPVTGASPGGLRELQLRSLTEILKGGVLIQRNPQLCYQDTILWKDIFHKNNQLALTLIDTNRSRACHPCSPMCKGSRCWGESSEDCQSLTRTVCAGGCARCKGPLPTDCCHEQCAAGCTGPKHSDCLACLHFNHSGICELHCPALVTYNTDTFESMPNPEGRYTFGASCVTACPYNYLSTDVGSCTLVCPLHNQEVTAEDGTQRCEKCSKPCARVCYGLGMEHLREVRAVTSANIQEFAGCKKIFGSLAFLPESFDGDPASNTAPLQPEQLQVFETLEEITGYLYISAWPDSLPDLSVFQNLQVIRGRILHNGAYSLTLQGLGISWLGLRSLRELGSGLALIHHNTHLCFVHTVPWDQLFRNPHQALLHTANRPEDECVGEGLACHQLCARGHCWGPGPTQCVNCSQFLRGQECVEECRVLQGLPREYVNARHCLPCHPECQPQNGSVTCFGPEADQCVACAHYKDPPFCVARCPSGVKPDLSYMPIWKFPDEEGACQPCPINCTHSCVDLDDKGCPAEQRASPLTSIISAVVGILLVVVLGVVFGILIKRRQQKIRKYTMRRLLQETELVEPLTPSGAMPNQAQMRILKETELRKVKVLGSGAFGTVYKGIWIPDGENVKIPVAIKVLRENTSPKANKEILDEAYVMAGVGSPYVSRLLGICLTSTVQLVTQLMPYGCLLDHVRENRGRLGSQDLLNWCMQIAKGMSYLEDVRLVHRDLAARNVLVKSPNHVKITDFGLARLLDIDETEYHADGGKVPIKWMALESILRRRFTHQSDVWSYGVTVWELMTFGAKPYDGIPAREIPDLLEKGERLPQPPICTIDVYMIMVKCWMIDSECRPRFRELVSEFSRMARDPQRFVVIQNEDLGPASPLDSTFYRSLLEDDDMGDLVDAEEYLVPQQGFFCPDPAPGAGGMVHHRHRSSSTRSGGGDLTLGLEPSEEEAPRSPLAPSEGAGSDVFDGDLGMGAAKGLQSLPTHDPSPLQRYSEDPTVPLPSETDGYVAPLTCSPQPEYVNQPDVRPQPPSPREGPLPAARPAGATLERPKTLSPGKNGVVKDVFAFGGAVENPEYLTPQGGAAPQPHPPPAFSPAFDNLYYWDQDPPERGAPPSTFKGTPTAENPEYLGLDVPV

[2] = molecular target: T3, HER2 (pY1248) in MDA-MB-231 (Homo sapiens, UniProt P04626); test: HER2 activation in MDA-MB-231 cells, western/dot blot; type: cell-based; conditions: MDA-MB-231, low HER2 expression
T3 construct: host or cells: MDA-MB-231
T3 sequence (P04626 23-1255): as above

BT474 [3] = test: MTT proliferation assay, BT474; type: cell-based, human; conditions: 10 μM
Experimental: (§1) Fig. 2 Ebselen oxide inhibits HER2 activation, cell proliferation, and anchorage‐independent growth of HER2^+ breast cancer cells. […] Blot and quantification of a representative experiment are shown out of 4 (A), 5 (B), or 2 (C) independent experiments. (D–F) Proliferation curves of HER2‐positive (SKBR3, D or BT474, E) or HER2‐negative (MDA‐MB‐231, F) breast cancer cell lines treated with vehicle or 10 μM ebselen oxide assessed by MTT assay. […] (G–I) Anchorage‐independent growth of SKBR3 (G), BT474 (H), or MDA‐MB‐231 (I) cells treated with vehicle or 10 μM ebselen oxide. […] Scale bars are […].

BT474 [4] = test: Soft agar anchorage-independent growth, BT474; type: cell-based, human; conditions: 10 μM
Experimental: A bottom layer of 0.8% agarose in DMEM supplemented with 20% FBS and penicillin/streptomycin was added to 24‐well plates before seeding 25.10^3 cells per well in a 0.6% agarose top layer. Cells were treated with a vehicle or with 10 μM ebselen oxide or derivatives. Treatments were renewed 3 times a week. After 6 weeks, colonies were visualized with a phase‐contrast microscope and their number and size were quantified using IMAGEJ software.
as §1

HER2 (pY1248) in SKOV3 = molecular target: T4, HER2 (pY1248) in SKOV3 (Homo sapiens, UniProt P04626); test: HER2 activation in SKOV3 ovarian cancer cells, western blot; type: cell-based; conditions: ebselen oxide 0–10 μM 24 h, AG1478 5 μM
T4 construct: host or cells: SKOV3
T4 sequence (P04626 23-1255): as above
Experimental: Human bone marrow endothelial cells (HBMECs) kindly provided by Dr. B. Weksler (Weill Medical College of Cornell University, NY) were cultured as described previously. The human breast cancer cell lines [SKBR3 (RRID:CVCL_0033), BT474 (RRID:CVCL_0179), and MDA‐MB‐231 (RRID:CVCL_0062)], the human gastric [NCI‐87 (RRID:CVCL_1603)] and ovarian [SKOV3 (RRID:CVCL_0532)] cancer cell lines were obtained from the American Type Culture Collection (Manassas, VA) and were maintained in DMEM containing 10% FBS. All cell lines were cultured under 5% CO2 at 37 °C. HBMECs were transfected using Amaxa Inc nucleofector system (Kit V and U015 program). […]
Fig. 3 Ebselen oxide inhibits HER2 activation and HER2‐dependent proliferation in gastric and ovarian HER2^+ cancer cells. (A) HER2‐positive NCI‐87 gastric cancer cells were treated with ebselen oxide (0–20 μM) for 24 h, lysed, and analyzed by western blot using anti‐pY1248‐HER2, HER2, and β‐tubulin antibodies. […] (B) HER2‐positive SKOV3 ovarian cancer cells were treated with ebselen oxide (0–10 μM) for 24 h, lysed, and analyzed by western blot using anti‐pY1248‐HER2, HER2, and ezrin antibodies. […] (C, D) Proliferation curves of NCI‐N87 gastric (C) or SKOV3 ovarian (D) cancer cells treated with vehicle or 7–10 μM ebselen oxide measured by MTT assay. […]

SKOV3 = test: Proliferation of SKOV3 cells; type: cell-based, human; conditions: ebselen oxide 7–10 μM, AG1478 5 μM
BT474 [5] = test: Incucyte proliferation, single agents and combinations, BT474; type: cell-based; conditions: Homo sapiens, BT-474, 96 h; read-out: Reduction/inhibition of cell proliferation
Experimental: (A–C) Proliferation curves of HER2‐positive (SKBR3, A; BT474, B; NCI‐N87, C) cancer cell lines treated or not with ebselen oxide (10 μM), lapatinib (10–1000 nM), or combination of these agents, as indicated. Proliferation was assessed overtime by Incucyte during 4 days. Data are mean ± SD (n = 8–12) of a representative experiment out of 4 (A), 3 (B), or 2 (C) independent experiments. […] Proliferation was assessed by Incucyte during 4 days. […] Scale bars are […].

NCI-N87 = test: Anchorage-independent growth (spheroid assay, ULA plates), NCI-N87; type: cell-based, human; conditions: ebselen oxide 10 μM, lapatinib 10 nM, trastuzumab 10 μg·mL−1, alone or combined
Experimental: 5.10^3 cells/24‐well were seeded in a complete medium in ULA plates (Corning® Costar® (Corning, NY, USA) C LS3473‐24EA) in the presence of indicated compounds. Spheroids were imaged 6–8 days later with a phase‐contrast microscope, and their areas were measured using IMAGEJ software.
Proliferation was assessed overtime by Incucyte during 4 days. Data are mean ± SD (n = 8–12) of a representative experiment out of 4 (A), 3 (B), or 2 (C) independent experiments. One‐way ANOVA followed by Sidak multiple comparison test, (*, compared with Vehicle; ° and #, respectively, compared with lapatinib 10 and 1000 nM) ***P < 0.001, ****P < 0.0001. […] Proliferation was assessed by Incucyte during 4 days. Data are mean ± SD (n = 8–12) of a representative experiment out of two independent experiments. […] Images of a representative experiment out of 3 (G) or 4 (H) independent experiments and quantification of the colony total area are shown where data are mean ± SEM. One‐way ANOVA followed by multiple comparison test, *P < 0.05, **P < 0.01. Scale bars are 100 μM.

[6] = system: HBMECs overexpressing p95 HER2; test: Proliferation of HBMECs overexpressing p95 HER2 (Incucyte); conditions: 5 μM, Incucyte 5 days
Experimental: (§2) 25.10^3 cells/96‐well transfected HBMECs or 9.10^3 cancer cells were seeded and monitored with an Incucyte S3 imaging system (Sartorius, Goettingen, Germany) using 10× objective every 2 h during 5 days. Confluency analyses were performed using the dedicated Incucyte analysis system.
(§3) (D–F) Proliferation was assessed by Incucyte during 5 days. Data are mean ± SEM of a representative experiment out of two independent experiments. Two‐way ANOVA followed by Bonferroni's multiple comparison test, ***P < 0.001, ****P < 0.0001.
(§4) (A-B) HBMECs transfected with empty vector (pRK5) or vectors encoding gD-HER2 WT, the truncated gD-
Proliferation was assessed by Incucyte during 5 days. Representative micrographs are shown (A).
Representative quantification of the proliferation (B) is shown where data are mean ± sem (n=8-12). Two-way
ANOVA followed byBonferroni’s multiple comparison test, *** P<0.001, **** P<0.0001. Scale bars are 100 µM.
(§5) vehicle, 5-10 µM Ebselen oxide or 5 µM AG1478. Proliferation was assessed by MTT assay during 3 days.
(§6) Data are mean ± sem (n=3). Two-way ANOVA followed by Bonferroni’s multiple comparison test, * P<0.05 **

[7] = system: HBMECs overexpressing V842I HER2; test: Proliferation of HBMECs overexpressing V842I HER2 (Incucyte, MTT)
Experimental: Cell medium was removed and replaced with fresh culture medium. 3‐(4,5‐dimethylthiazol‐2‐yl)‐2,5‐diphenyltetrazolium bromide (MTT reagent) was added at a final concentration of 1.2 mM for 2–4 h at 37 °C. Produced formazan was solubilized with DMSO and measured by 540 nm absorbance reading.
as §2, §3, §4
Proliferation was assessed by Incucyte during 5 days.
Representative quantification of the proliferation (B) is shown where data are mean ± sem (n=8-12).
ANOVA followed byBonferroni’s multiple comparison test, *** P<0.001, **** P<0.0001.
as §5, §6

In the case of O=C1c2ccccc2[Se](=O)N1c1ccccc1 (centres unmarked) [Ebselen oxide, ebselen oxide], the “Direct binding to JMHER2 (SPR)” value [1] is reported as “directly bind”, the “Inhibition of HER2 activation” value (HER2 (pY1248) in SKBR3; SKBR3, 24 h) is reported as 66% and the EC50 (HER2 (pY1248) in SKBR3; SKBR3, 24 h, read-out: EC50 (inhibition of HER2)) is reported as 23.9 µM. The “Inhibition of HER2 activation” value (HER2 (pY1248) in SKBR3; SKBR3, 48 h) was 64%, the “Effect on HER2 activation, single agents and combination” value (HER2 (pY1248) in SKBR3; SKBR3, ebselen oxide 10 μM, lapatinib 10 nM) was “partially decreased” and the “HER2 inhibition, %” value (HER2 (pY1248) in SKBR3; Table 1, HER2+ breast cancer cells (ebselen oxide value equals SKBR3 48 h)) was 64.2%. The EC50 (HER2 (pY1248) in SKBR3; Table 1, HER2+ breast cancer cells (ebselen oxide value equals SKBR3 48 h), read-out: EC50, μM (HER2 inhibition)) was 26.9 µM, the “Effect on HER2 activation” value [2] was “no effect” and the “Reduction of proliferation rate” value (BT474 [3]) was 55%. The “Reduction in the size of micro-colonies” value (BT474 [4]) was over 50%, the “Effect on HER2 activation” value (HER2 (pY1248) in SKOV3) was “strongly blocked” and the “Effect on proliferation” value (SKOV3) was “reduced proliferation”. The inhibition at 10 µM (BT474 [5]) was 30%, the “Reduction of anchorage-independent growth (spheroid assay)” value (NCI-N87) was 23% and the “Inhibition of cell proliferation induced by overexpression of p95 HER2” value [6] was “almost totally inhibited”. For the same molecule, the “Inhibition of cell proliferation induced by overexpression of V842I HER2” value ([7]; 5 μM, Incucyte 5 days) was “almost totally inhibited” and the “Inhibition of proliferation compared with AG1478 (5 μM)” value ([7]; MTT 3 days, V842I) was “similar”.

Source: PMC10552892, “Ebselen oxide and derivatives are new allosteric HER2 inhibitors for HER2‐positive cancers” (Molecular Oncology, 2023)
